# Assays:
# [1] = molecular target: Receptor tyrosine-protein kinase erbB-2 (Homo sapiens, UniProt P04626); assay: biochemical; format: cell-based, Insect cells; settings: insect cells;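 further: inhibition of HER2 kinase enzyme activity, measured with Poly(Glu:Tyr) as the phosphorylation substrate; in other assays of this panel Not Active means under 50% inhibition at 10 µM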
# [2] = molecular target: Tyrosine-protein kinase Fyn (Homo sapiens, UniProt P06241); assay: biochemical; format: cell-based, Insect cells; settings: insect cells;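 further: enzymatic inhibition of Fyn kinase activity measured with Poly(Glu:Tyr) as the phosphorylation substrate; in other assays of this panel Not Active means under 50% inhibition at 10 µM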
# Chain of Tyrosine-protein kinase Fyn (P06241 whole entry): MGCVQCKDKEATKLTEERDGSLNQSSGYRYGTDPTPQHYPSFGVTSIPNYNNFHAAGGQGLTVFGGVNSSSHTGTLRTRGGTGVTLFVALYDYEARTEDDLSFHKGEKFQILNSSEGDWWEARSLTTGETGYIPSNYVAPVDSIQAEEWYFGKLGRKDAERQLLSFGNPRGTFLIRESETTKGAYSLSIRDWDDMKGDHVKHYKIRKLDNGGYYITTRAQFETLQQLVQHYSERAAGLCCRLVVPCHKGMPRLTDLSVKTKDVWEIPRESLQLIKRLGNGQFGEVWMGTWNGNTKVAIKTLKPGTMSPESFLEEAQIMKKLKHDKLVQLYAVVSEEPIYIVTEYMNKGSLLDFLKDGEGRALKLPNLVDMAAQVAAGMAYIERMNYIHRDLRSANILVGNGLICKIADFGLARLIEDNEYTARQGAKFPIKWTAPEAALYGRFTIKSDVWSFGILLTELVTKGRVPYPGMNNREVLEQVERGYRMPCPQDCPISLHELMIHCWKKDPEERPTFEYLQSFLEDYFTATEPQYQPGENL
# [3] = DRUGMATRIX: Phorbol Ester radioligand binding (ligand: [3H] PDBu); format: cell membranes, Mus musculus, ICR, Brain, Membrane; settings: Not Active = under 50% inhibition at 10 µM
# [4] = molecular target: Sodium-dependent dopamine transporter (Homo sapiens, UniProt Q01959); assay: DRUGMATRIX: Dopamine Transporter radioligand binding (ligand: [125I] RTI-55); format: cell membranes, CHO-K1, Membrane; settings: Not Active = under 50% inhibition at 10 µM; for Ki: read-out: Ki
# Chain of Sodium-dependent dopamine transporter (Q01959 whole entry): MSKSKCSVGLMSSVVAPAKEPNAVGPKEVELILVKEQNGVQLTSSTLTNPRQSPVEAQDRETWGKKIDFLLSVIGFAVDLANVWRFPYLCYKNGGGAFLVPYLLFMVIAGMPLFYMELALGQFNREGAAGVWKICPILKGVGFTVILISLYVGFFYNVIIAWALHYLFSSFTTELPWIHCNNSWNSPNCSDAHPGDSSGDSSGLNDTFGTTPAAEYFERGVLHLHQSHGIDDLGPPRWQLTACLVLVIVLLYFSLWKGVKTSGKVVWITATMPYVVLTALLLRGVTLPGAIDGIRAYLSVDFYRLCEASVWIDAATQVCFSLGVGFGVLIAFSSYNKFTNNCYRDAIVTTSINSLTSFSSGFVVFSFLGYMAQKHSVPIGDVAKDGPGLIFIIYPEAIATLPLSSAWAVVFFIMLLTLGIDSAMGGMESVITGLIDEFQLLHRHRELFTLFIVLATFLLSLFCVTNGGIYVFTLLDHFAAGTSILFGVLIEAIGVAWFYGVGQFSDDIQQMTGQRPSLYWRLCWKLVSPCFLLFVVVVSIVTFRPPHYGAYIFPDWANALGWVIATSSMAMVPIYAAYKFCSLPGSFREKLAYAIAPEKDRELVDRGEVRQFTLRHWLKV
# Histamine H2 receptor = Histamine H2 receptor (Homo sapiens, UniProt P25021); format: cell membranes, CHO-K1, Membrane; further: in other assays of this panel Not Active means under 50% inhibition at 10 µM
# Chain of Histamine H2 receptor (P25021 whole entry): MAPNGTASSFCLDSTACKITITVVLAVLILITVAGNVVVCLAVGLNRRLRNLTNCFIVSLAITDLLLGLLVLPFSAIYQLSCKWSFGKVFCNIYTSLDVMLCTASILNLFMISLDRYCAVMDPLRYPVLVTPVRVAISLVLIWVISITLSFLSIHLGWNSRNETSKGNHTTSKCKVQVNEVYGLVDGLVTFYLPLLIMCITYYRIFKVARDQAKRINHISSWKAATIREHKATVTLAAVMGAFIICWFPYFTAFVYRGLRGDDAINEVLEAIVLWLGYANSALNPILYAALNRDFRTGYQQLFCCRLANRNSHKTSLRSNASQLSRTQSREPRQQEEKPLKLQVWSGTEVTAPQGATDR
# [5] = molecular target: T1, Neuropeptide Y receptor type 1 (Homo sapiens, UniProt P25929); format: cell membranes, Membrane; settings: sk-n-mc; further: in other assays of this panel Not Active means under 50% inhibition at 10 µM
# T1 sequence (P25929 whole entry): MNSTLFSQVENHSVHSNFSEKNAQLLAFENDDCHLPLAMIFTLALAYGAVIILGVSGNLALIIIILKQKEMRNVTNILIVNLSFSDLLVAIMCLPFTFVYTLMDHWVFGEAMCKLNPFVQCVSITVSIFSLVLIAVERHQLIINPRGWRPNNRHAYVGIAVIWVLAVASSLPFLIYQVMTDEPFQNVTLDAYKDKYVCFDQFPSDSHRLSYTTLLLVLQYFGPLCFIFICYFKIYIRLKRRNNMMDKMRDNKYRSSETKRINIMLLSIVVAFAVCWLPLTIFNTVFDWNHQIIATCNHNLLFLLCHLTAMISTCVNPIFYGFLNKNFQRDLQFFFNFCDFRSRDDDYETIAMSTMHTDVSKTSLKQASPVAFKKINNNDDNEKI
# Chain of Receptor tyrosine-protein kinase erbB-2 (P04626 whole entry): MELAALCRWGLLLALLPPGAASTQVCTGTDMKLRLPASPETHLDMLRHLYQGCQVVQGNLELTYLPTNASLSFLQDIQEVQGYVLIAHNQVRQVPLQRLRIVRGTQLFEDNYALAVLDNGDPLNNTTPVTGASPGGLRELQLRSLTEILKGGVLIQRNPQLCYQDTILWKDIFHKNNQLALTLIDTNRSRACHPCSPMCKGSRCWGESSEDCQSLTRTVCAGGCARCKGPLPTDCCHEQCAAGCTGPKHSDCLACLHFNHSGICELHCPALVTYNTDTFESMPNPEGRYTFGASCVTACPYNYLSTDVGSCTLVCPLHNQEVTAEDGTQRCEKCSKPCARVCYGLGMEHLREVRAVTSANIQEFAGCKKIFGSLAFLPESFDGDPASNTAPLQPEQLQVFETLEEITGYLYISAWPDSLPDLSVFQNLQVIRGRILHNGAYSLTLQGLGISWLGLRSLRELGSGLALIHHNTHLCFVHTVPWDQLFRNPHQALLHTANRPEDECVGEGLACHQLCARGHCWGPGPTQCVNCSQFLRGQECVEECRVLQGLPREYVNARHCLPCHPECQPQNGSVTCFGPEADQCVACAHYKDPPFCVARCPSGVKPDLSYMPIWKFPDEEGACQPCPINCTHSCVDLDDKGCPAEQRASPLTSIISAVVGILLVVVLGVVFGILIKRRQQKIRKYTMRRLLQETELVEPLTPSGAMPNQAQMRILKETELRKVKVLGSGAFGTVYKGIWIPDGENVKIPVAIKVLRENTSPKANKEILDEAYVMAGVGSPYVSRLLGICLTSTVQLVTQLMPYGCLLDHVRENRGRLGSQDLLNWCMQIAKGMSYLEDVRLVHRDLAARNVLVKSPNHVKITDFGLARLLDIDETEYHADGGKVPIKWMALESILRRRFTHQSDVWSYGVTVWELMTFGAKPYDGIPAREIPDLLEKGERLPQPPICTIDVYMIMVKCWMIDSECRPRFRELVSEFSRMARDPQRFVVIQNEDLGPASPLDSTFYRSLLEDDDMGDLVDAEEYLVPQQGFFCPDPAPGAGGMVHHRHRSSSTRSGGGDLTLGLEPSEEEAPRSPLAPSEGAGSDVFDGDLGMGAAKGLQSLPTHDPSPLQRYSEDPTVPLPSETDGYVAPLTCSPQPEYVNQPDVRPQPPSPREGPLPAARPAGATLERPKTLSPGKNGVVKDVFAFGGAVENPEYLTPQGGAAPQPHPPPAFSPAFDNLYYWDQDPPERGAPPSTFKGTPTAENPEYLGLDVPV
SMILES,IC50 [1],IC50 [2],IC50 [3],Ki [3],IC50 ([4]; cho-k1),IC50 (Histamine H2 receptor; cho-k1),IC50 [5],IC50 ([4]; read-out: IC50) [µM],Ki [4] [µM],IC50 (Histamine H2 receptor; read-out: IC50) [µM],Ki (Histamine H2 receptor; read-out: Ki) [µM]
C[S+](C)[O-] [DIMETHYL SULFOXIDE],Not Active,Not Active,Not Active,Not Active,Not Active,Not Active,Not Active,–,–,–,–
CC1=NN(c2ccccc2)C(=O)C1 [EDARAVONE],Not Active,Not Active,Not Active,Not Active,Not Active,Not Active,Not Active,–,–,–,–
CC(C)C[C@H]1C(=O)N2CCC[C@H]2[C@]2(O)O[C@](NC(=O)[C@@H]3C=C4c5cccc6[nH]cc(c56)C[C@H]4N(C)C3)(C(C)C)C(=O)N12 [ERGOCRYPTINE],Not Active,Not Active,Not Active,Not Active,Not Active,Not Active,Not Active,–,–,–,–
C[C@]12CC[C@@H]3c4ccc(O)cc4CC[C@H]3[C@@H]1C[C@@H](O)[C@@H]2O [ESTRIOL],Not Active,Not Active,Not Active,Not Active,Not Active,Not Active,Not Active,–,–,–,–
C#C[C@]1(O)CC[C@H]2[C@@H]3CCC4=CC(=O)CC[C@]4(C)[C@H]3CC[C@@]21C [ETHISTERONE],Not Active,Not Active,Not Active,Not Active,Not Active,Not Active,Not Active,–,–,–,–
CC(O)(P(=O)(O)O)P(=O)(O)O [ETIDRONIC ACID],Not Active,Not Active,Not Active,Not Active,Not Active,Not Active,Not Active,–,–,–,–
CC(C)(C(=O)O)c1ccc(C(O)CCCN2CCC(C(O)(c3ccccc3)c3ccccc3)CC2)cc1 (centres undefined) [FEXOFENADINE],Not Active,Not Active,Not Active,Not Active,Not Active,Not Active,Not Active,–,–,–,–
CN1CCN(c2c(F)cc3c(=O)c(C(=O)O)cn(CCF)c3c2F)CC1 [FLEROXACIN],Not Active,Not Active,Not Active,Not Active,Not Active,Not Active,Not Active,–,–,–,–
O=c1[nH]c(=O)n([C@H]2C[C@H](O)[C@@H](CO)O2)cc1F [FLOXURIDINE],Not Active,Not Active,Not Active,Not Active,Not Active,Not Active,Not Active,–,–,–,–
COC(=O)Nc1nc2cc(C(=O)c3ccc(F)cc3)ccc2[nH]1 [FLUBENDAZOLE],Not Active,Not Active,Not Active,Not Active,Not Active,Not Active,Not Active,–,–,–,–
CC(=O)OCC(=O)[C@@]1(O)CC[C@H]2[C@@H]3CCC4=CC(=O)CC[C@]4(C)[C@@]3(F)[C@@H](O)C[C@@]21C [FLUDROCORTISONE ACETATE],Not Active,Not Active,Not Active,Not Active,Not Active,Not Active,Not Active,–,–,–,–
CCOC(=O)c1ncn2c1CN(C)C(=O)c1cc(F)ccc1-2 [FLUMAZENIL],Not Active,Not Active,Not Active,Not Active,Not Active,Not Active,Not Active,–,–,–,–
CC(=O)OCC(=O)[C@@]12OC(C)(C)O[C@@H]1C[C@H]1[C@@H]3C[C@H](F)C4=CC(=O)C=C[C@]4(C)[C@@]3(F)[C@@H](O)C[C@@]12C [FLUOCINONIDE],Not Active,Not Active,Not Active,Not Active,Not Active,Not Active,Not Active,–,–,–,–
O=C(O)P(=O)(O)O [FOSCARNET],Not Active,Not Active,Not Active,Not Active,Not Active,Not Active,Not Active,–,–,–,–
Cc1ccc(C)c(OCCCC(C)(C)C(=O)O)c1 [GEMFIBROZIL],Not Active,Not Active,Not Active,Not Active,Not Active,Not Active,Not Active,–,–,–,–
O=c1c(-c2ccc(O)cc2)coc2cc(O)cc(O)c12 [GENISTEIN],Not Active,Not Active,Not Active,Not Active,–,Not Active,Not Active,16.9,13.4,–,–
CCC1=C(C)CN(C(=O)NCCc2ccc(S(=O)(=O)NC(=O)N[C@H]3CC[C@H](C)CC3)cc2)C1=O [GLIMEPIRIDE],Not Active,Not Active,Not Active,Not Active,Not Active,Not Active,Not Active,–,–,–,–

SMILES,IC50 [1],IC50 [2],IC50 [3],Ki [3],IC50 ([4]; cho-k1),IC50 (Histamine H2 receptor; cho-k1),IC50 [5],IC50 ([4]; read-out: IC50) [µM],Ki [4] [µM],IC50 (Histamine H2 receptor; read-out: IC50) [µM],Ki (Histamine H2 receptor; read-out: Ki) [µM]
Nc1cc(-c2ccncc2)c[nH]c1=O [INAMRINONE],Not Active,Not Active,Not Active,Not Active,Not Active,Not Active,Not Active,–,–,–,–
CCCCC1=NC2(CCCC2)C(=O)N1Cc1ccc(-c2ccccc2-c2nnn[nH]2)cc1 [IRBESARTAN],Not Active,Not Active,Not Active,Not Active,Not Active,Not Active,Not Active,–,–,–,–
CN1CCC(=C2c3ccccc3CC(=O)c3sccc32)CC1 [KETOTIFEN],Not Active,Not Active,Not Active,Not Active,Not Active,–,Not Active,–,–,4.13,4.06
N[C@@H](Cn1ccc(=O)c(O)c1)C(=O)O [L-MIMOSINE],Not Active,Not Active,Not Active,Not Active,Not Active,Not Active,Not Active,–,–,–,–
C[N+](C)(C)C[C@H](O)CC(=O)[O-] [LEVOCARNITINE],Not Active,Not Active,Not Active,Not Active,Not Active,Not Active,Not Active,–,–,–,–
C[C@H]1COc2c(N3CCN(C)CC3)c(F)cc3c(=O)c(C(=O)O)cn1c23.C[C@H]1COc2c(N3CCN(C)CC3)c(F)cc3c(=O)c(C(=O)O)cn1c23.O [LEVOFLOXACIN],Not Active,Not Active,Not Active,Not Active,Not Active,Not Active,Not Active,–,–,–,–
CCn1cc(C(=O)O)c(=O)c2cc(F)c(N3CCNC(C)C3)c(F)c21 (centres undefined) [LOMEFLOXACIN],Not Active,Not Active,Not Active,Not Active,Not Active,Not Active,Not Active,–,–,–,–
CN1CCCC(CN2c3ccccc3Sc3ccccc32)C1 (centres undefined) [MEPAZINE],Not Active,Not Active,Not Active,Not Active,Not Active,Not Active,Not Active,–,–,–,–
Cc1cccc(C)c1NC(=O)C1CCCCN1C (centres undefined) [MEPIVACAINE],Not Active,Not Active,Not Active,Not Active,Not Active,Not Active,Not Active,–,–,–,–
CN(C)C(=N)NC(=N)N [METFORMIN],Not Active,Not Active,Not Active,Not Active,Not Active,Not Active,Not Active,–,–,–,–
CC(C)(C)NCC(O)COc1cccc2c1CC(O)C(O)C2 (centres undefined) [NADOLOL],Not Active,Not Active,Not Active,Not Active,Not Active,Not Active,Not Active,–,–,–,–
C[C@]12CC[C@H]3[C@@H](CCC4=CC(=O)CC[C@@H]43)[C@@H]1CC[C@@H]2O [NANDROLONE],Not Active,Not Active,Not Active,Not Active,Not Active,Not Active,Not Active,–,–,–,–
C[C@@H]1C/C=C/C=C/C=C/C=C/[C@H](O[C@@H]2O[C@H](C)[C@@H](O)[C@H](N)[C@@H]2O)C[C@@H]2O[C@](O)(C[C@@H](O)C[C@H]3O[C@@H]3/C=C/C(=O)O1)C[C@H](O)[C@H]2C(=O)O [NATAMYCIN],Not Active,Not Active,Not Active,Not Active,Not Active,Not Active,Not Active,–,–,–,–
CN(C)C(=O)Oc1cccc([N+](C)(C)C)c1.[Br-] [NEOSTIGMINE BROMIDE],Not Active,Not Active,Not Active,Not Active,Not Active,Not Active,Not Active,–,–,–,–
NC(=O)c1cccnc1 [NIACINAMIDE],Not Active,Not Active,Not Active,Not Active,Not Active,Not Active,Not Active,–,–,–,–
CS(=O)(=O)Nc1ccc([N+](=O)[O-])cc1Oc1ccccc1 [NIMESULIDE],Not Active,Not Active,Not Active,Not Active,–,Not Active,Not Active,14.9,11.8,–,–

# — ChEMBL document CHEMBL1909046, “DrugMatrix in vitro pharmacology data”
